# Experimental data: patent publication US20260355079A1, “Oral Care Compositions Comprising Hops Beta Acids And Fluoride Ions” (priority 2019, published 2026)
# Test system: 3-day biofilm (plaque biofilm)
# Test: in vitro plaque glycolysis model (iPGRM): acid production and acid (glycolysis) inhibition
# Type: cell-based, plaque microorganisms from pooled human saliva
# Settings: TABLE 2; 2 min treatment, slurry in water (1:5)
# Protocol: Acid Production and Acid Inhibition [%]
# Acid production and acid inhibition were determined with the in vitro plaque glycolysis model (iPGRM). The purpose of this technique is to provide a simple and quick method for determining if compounds have an influence on the metabolic pathways that plaque microorganisms utilize to produce toxins that adversely affect gingival health.
# The in vitro plaque glycolysis model (iPGRM) is a technique in which plaque is grown from human saliva and treated with various agents to determine anti-glycolytic activity of treatments. When bacteria convert sugar into energy with the help of enzymes, acids are formed. These acids demineralize and damage the dental enamel. The purpose of this technique is to provide a simple and quick method for determining if treatment compounds have an inhibitory effect on the metabolic pathways that plaque microorganisms utilize for the production of acids or toxins and/or inhibit their growth. […]
# […] The pH of the media solutions was then measured to determine the amount of glycolysis inhibition relative to a negative control.
# On Day 1, new glass rods (5 mm×90 mm) were polished approximately 25 mm from the un-tapered end on a lathe with silicon carbide paper of 240, 320, 400, and 600 grit used sequentially. […] After polishing, rods were stored until ready to run test. […]
structure (smiles),measurement,value
[H]/N=C(\N/C(=N/[H])NCCCCCCNC(=N)NC(=N)Nc1ccc(Cl)cc1)Nc1ccc(Cl)cc1 [Chlorhexidine],"Acid Production (ΔpH), Mean",0.30
